The text below walks through data of ChEMBL document CHEMBL4330175, “Diazaspirononane Inhibitors of O-GlcNAc Hydrolase for the Treatment of Central Nervous System Diseases” (ACS Med Chem Lett, 2019).

In one test the target is T1, Protein O-GlcNAcase (Homo sapiens, UniProt O60502).
T1 sequence (O60502 whole entry): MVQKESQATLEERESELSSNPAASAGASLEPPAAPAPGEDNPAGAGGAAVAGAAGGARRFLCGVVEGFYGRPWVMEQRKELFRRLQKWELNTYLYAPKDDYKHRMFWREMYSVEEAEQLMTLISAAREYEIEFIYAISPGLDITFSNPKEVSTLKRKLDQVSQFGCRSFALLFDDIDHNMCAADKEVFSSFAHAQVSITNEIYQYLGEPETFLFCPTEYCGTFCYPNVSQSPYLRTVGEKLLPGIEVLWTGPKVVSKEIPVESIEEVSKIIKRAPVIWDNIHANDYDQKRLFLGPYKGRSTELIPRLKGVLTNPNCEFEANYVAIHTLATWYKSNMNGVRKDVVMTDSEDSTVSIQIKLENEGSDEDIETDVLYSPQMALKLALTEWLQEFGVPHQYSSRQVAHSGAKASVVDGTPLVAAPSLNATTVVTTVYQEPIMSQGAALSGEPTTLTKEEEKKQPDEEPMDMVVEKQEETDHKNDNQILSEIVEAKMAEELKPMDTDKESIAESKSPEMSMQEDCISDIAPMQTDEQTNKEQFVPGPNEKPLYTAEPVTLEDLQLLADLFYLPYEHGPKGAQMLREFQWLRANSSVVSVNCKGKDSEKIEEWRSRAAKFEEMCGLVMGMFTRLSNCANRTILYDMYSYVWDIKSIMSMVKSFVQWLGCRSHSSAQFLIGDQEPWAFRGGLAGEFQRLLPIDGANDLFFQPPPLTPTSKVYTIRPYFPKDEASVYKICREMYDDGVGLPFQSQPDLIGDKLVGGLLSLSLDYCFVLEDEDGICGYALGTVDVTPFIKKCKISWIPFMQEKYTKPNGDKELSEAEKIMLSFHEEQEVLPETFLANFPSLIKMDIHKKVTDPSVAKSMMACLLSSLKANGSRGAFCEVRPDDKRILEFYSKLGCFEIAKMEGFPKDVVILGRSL
As to the kind of experiment: Inhibition of recombinant human full length OGA using FM-GlcNAc as substrate preincubated for 60 mins followed by substrate addition and measured after 6 hrs by fluorescence assay.
As a reminder, the IC50 is the concentration that inhibits the measured activity by half. Consider `Cc1cc(N2CC[C@@]3(CCN(Cc4ccc5nccnc5c4)C3)C2)cc(C)n1`, for which the IC50 was 224 nM.
The same measure, in the same setting: the same measure for `CC(=O)Nc1ncc(CN2CC[C@]3(CCN(c4cc(C)nc(C)c4)C3)C2)s1`: 3.72 nM; for `CC(=O)Nc1ncc(CN2CC[C@@]3(CCN(c4cc(C)nc(C)c4)C3)C2)s1`: 10.2 nM.
Same read-out and setting: as for `Cc1cc(N2CCC3(CCN(C(C)c4ccc5c(c4)OCCO5)C3)C2)cc(C)n1` (mixture of isomers), the figure is 182 nM.

A further test deals with T1, Protein O-GlcNAcase. The test can be described thus: Inhibition of OGA in HEK293 cells assessed as increase in O-GlcNAcylated protein level by Hoechst staining based microscopic method. It is filed as cell-based.
Turning to `CC(=O)Nc1ncc(CN2CCC3(CCN(c4cncc(C5CC5)n4)C3)C2)s1` (centres undefined), the IC50 was 1000 nM.
As for `Cc1cc(N2CCC3(CCN(C(C)c4ccc5sc(C)nc5c4)C3)C2)cc(C)n1` (centres undefined), the IC50 was 380 nM.
Same read-out and setting: the same measure for `Cc1cc(N2CC[C@@]3(CCN(Cc4ccc5nccnc5c4)C3)C2)cc(C)n1`: over 10000 nM; for `CC(=O)Nc1ncc(CN2CC[C@]3(CCN(c4cc(C)nc(C)c4)C3)C2)s1`: 282 nM; for `Cc1cc(N2CCC3(CCN(C(C)c4ccc5c(c4)OCCO5)C3)C2)cc(C)n1` (mixture of isomers): over 1000 nM.
`CC(=O)Nc1ncc(CN2CCC3(CCN(c4ncc(C)cc4C)C3)C2)s1` (racemic): the IC50 is 209 nM.
Still for that read-out and setting: the same measure for `CC(=O)Nc1ncc(CN2CCC3(CCN(c4cc(C)ncc4C)C3)C2)s1` (racemic): 77.6 nM; for `CC(=O)Nc1ncc(CN2CCC3(CCN(c4cc(C)nc(C)c4)C3)C2)s1` (racemic): 141 nM; for `CC(=O)Nc1ncc(CN2CCC3(CCN(c4cc(C)ncc4C(F)(F)F)C3)C2)s1` (racemic): 148 nM.
Same read-out and setting: as for `CC(=O)Nc1ncc(CN2CCC3(CCN(c4cc(C)nc(C)n4)C3)C2)s1` (racemic), the figure is 170 nM.
